# Results: patent US20140220566A1, “MATERIALS AND METHODS FOR DETERMINING SENSITIVITY POTENTIAL OF COMPOUNDS” (ELECTROPHORETICS LIMITED, priority 2011, published 2014)
# Tests used:
# Myeloperoxidase (MPO) = assay: Myeloperoxidase ELISA in supernatant of Mutz-3 cells; type: cell-based, human; details: FIG. 4
# Excerpt: (§1) As an alternative approach to find predictive markers for sensitizing potential we explored the potential of cell culture supernatants as a source of markers for chemical safety by adopting a more targeted approach using commercially available immunoassays to measure the levels of three known inflammatory markers. The three proteins to be measured by ELISA were selected on the basis of a review of literature references to secreted inflammatory protein response to chemical sensitizer. Cells were cultured as described in Example 1 and the spent medium removed for direct analysis by ELISA. All kits were used in accordance with manufacturer's instructions.
# MPO is a peroxidase enzyme which is stored in lysosomes and released during inflammation Myeloperoxidase was measured by ELISA (Assay-Designs) (FIG. 4).
# MUTZ-3 cells = assay: PLS score plot of proteomic response, fourth study; type: cell-based, human; details: FIG. 3, ANOVA filtered protein list
# Description: In the fourth study (40-002—8) Mutz-3 cells were incubated with 2 contact sensitizer (120 μM cinnamic aldehyde, 4 μM DNCB), 1 respiratory sensitizer (150 μM TMA), 1 irritant (200 μM SDS) and 1 controls (untreated).
# A preferred method for classification of chemicals is employing partial least squares regression analysis (PLS). PLS discriminant analysis identifies the most important classifiers from the list of interest. A model was built using the response variables (y) highlighted in red and the ANOVA filtered proteins as predictors (x). The first PLS components (x-axis) was plotted against the second PLS component (y-axis) and separated the biomarkers having a role in classifying the three experimental groups “control”, “irritant” and sensitizer”.
# In the score plot each point represents one 1 sample. Based on the ANOVA filtered protein list samples a good separation between control, sensitizer and irritant treated samples was achieved.
# dendritic cell lines = details: Mitjans et al. 2009; cited from earlier work
# [1] = test system: Calprotectin (S100A8/S100A9); assay: Calprotectin immunoassay in supernatant of Mutz-3 cells; type: cell-based, human; details: FIG. 5
# Excerpt: as §1
# Calprotectin is heterodimer of S100A8/S100A9 was measured in supernatant of Mutz-3 cells by a commercially available immunoassay (Immundiagnostik AG, Bensheim, Germany) (FIG. 5). Calprotectin is actively secreted by phagocytes in response to stress and binds to Toll-like receptor 4 (TLR4). Toll-like receptors play an important role in the innate immune system and activation of TLR4 by calprotectin further amplifies inflammation (Ehrchen et al. 2009). TLR4 and interleukin 12 double knock-out mice, show a marked decrease of DC-sensitization by a broad range of different sensitizers including 2,4,6-trinitro-1-chlorobenzene (TNCB), oxazolone, and fluorescein isothiocyanate (Martin et al. 2008). […]
Structure (SMILES),MPO release into supernatant of Mutz-3 cells (Myeloperoxidase (MPO)),relative distance of treated samples from control in PLS score plot (MUTZ-3 cells),response of the IL-8 assay (dendritic cell lines),S100A8/S100A9 (calprotectin) levels in supernatant of Mutz-3 cells [1]
"O=C(O)c1ccc2c(c1)C(=O)OC2=O [TMA, Trimellitic anhydride]",does not activate this pathway,smaller distance to control sample,fails to respond,–
"O=[N+]([O-])c1ccc(Cl)c([N+](=O)[O-])c1 [DNCB, 1-chloro-2,4-dinitrobenzene]",activates an inflammatory pathway involving release of the peroxidase enzyme MPO,greatest relative distance from the control,–,modulated
